Reference: US20250064888A1, “COMPOSITIONS AND METHODS FOR TREATING CYTOKINE STORM” (SHENZHEN HIGHTIDE BIOPHARMACEUTICAL LTD., priority 2022, published 2025)
Marks after values point to notes of the source that are not given here.

System: LPS-induced mice model
Test: Survival rate in LPS-induced mice model
Type: in vivo, C57BL/6J mice
Settings: G6 positive control, 4 mg/kg/day ig; for survival rate: first dose 1 h before LPS
Experimental: Male SPF C57BL/6J mice (6-8 weeks old with body weight about 18-20 g) used in the study were purchased from Shanghai SLAC Laboratory Animal Co., Ltd. All the care and use of animals followed 3R principles and relevant regulations.
One hundred (100) male C57BL/6J mice (18-20 g) were used for the study. After acclimated for 7 days, the inflammation mice model, which is characterized by a severe acute systemic inflammation response was established by a single tail vein injection of LPS (30 mg/kg).
The model animals were randomly divided into 7 groups: vehicle control group (G0), test group 1 (G1)˜test group 5 (G5) and positive control group (G6), of which there were 15 mice/group in G0˜G5 and 10 mice/group in G6. Day 1 was defined as the day on which tail vein injection of LPS (30 mg/kg), treatment start from the same day of the model establishment (Day 1) through Day 5 for consecutive 5 days (120 h after LPS induction). Except for the first dose on Day1 which were set at 5 min before LPS injection, 5 min after LPS injection, 1 hour before LPS injection and 1 hour after LPS injection respectively (Detailed information see the administration schedule in table 1), each groups have the same time schedules for administration (8 h after LPS injection for the second dose and bid with once in the morning, once in the evening for the following days). Vehicle and API were administered by back subcutaneous injection, DEX was administered by gavage.
Graphpad 8.0 software was used for data analysis. Log-rank (Mantel-Cox) test was used for statistical analysis of the survival rate between each treatment group and vehicle control group.

SMILES: C[C@@H]1C[C@H]2[C@@H]3CCC4=CC(=O)C=C[C@]4(C)[C@@]3(F)[C@@H](O)C[C@]2(C)[C@@]1(O)C(=O)CO [DEX, Dexamethasone]
- survival rate (8 h): 100.0%
- survival rate (16 h): 100.0%
- survival rate (24 h): 100.0%
- survival rate (48 h): 90.0%
- survival rate (72 h): 90.0%
- survival rate (120 h): 90.0%**
- mice died until 72 h after LPS injection (10 mice/group): 1 mouse
